# From patent US20180318415A1, “NOVEL ADJUVANT FORMULATIONS” (GLAXOSMITHKLINE BIOLOGICALS, SA, priority 2015, published 2018)
# System: rabbits
# Test: Rabbit pyrogen test (USP<151>)
# Settings: CRX-601 per kg animal body weight
smiles,measurement,value
CCCCCCCCCCC[C@H](CC(=O)NC1C(OC(=O)C[C@@H](CCCCCCCCCCC)OCCCCCCCCCC)[C@H](OP(=O)(O)O)C(CO)O[C@H]1OC[C@H](NC(=O)C[C@@H](CCCCCCCCCCC)OCCCCCCCCCC)C(=O)O)OCCCCCCCCCC (stereo partly shown) [free CRX-601],Max non-pyrogenic dose,0.001 to 0.002 µg/kg
